“And” between values parts separate entries of the source, which are not always exact repeats. Equal values may be shown once. Read-outs that look alike come from different tables or passages of the source.
What was measured:
[1] = molecular target: T1, human KDR (VEGF-receptor-2) (Homo sapiens, UniProt P35968); assay: KDR kinase enzyme assay (DELFIA, KDR-IC-Flag, poly(Glu4-Tyr) peptide); format: biochemical; details: for inhibition at 0.1 µM / inhibition at 1 µM: read-out: % Inhibition
T1 construct: beginning at Met-806; (5′-ATG GAT CCA GAT GM CTC CCA TTG) and ending at Val-1356; made in house

[2] = molecular target: T2, KDR (Homo sapiens, UniProt P35968); details: compound conc. 1000 nM
[3] = molecular target: T2, KDR; assay: cell-based; details: for inhibition at 1 µM: read-out: % Inhibition of KDR kinase autophosphorylation in KDR15 cells, compound conc. 1000 nM; for IC50: IC50 (nM), inhibition of KDR kinase autophosphorylation in KDR15 cells, KDR15 cells, VEGF 50 ng/ml, phospho-KDR-Y996 immunoblot
[4] = molecular target: T1, human KDR (VEGF-receptor-2); assay: KDR kinase enzyme assay wash-out experiments (irreversible inhibition); format: biochemical
Description: To determine if compounds bound irreversibly to enzyme, plates were washed after the enzyme plus compound pre-incubation step and prior to the addition of ATP. Parallel plates were tested wherein one plate was processed exactly as above while a second plate was washed three times in 100 μl of 4 mM HEPES, pH 7.4, to remove unbound compound. 1× Kinase buffer (30 μl of 1 mM MnCl2, 4 mM HEPES, pH 7.4, 20 μM Na3VO4) and 20 μl of ATP/MgCl2 were added to the wash-out plate. Detection of phosphotyrosinylated peptide for both plates was performed as described above.
For each inhibitor shown in Table 2, two IC50 determinations are shown, one under normal conditions and the other where an intermediate wash-out step is carried out. […] If there was a large increase in the IC50 value in the wash-out experiment compared to the experiment where there was no wash-out, then it was determined that the compound was behaving as a conventional reversible binding inhibitor.

[5] = system: Human umbilical vein endothelial cells (HUVEC); assay: HUVEC proliferation assay, VEGF-dependent growth ([3H]-thymidine incorporation); format: cell-based; details: for inhibition at 0.1 µM / inhibition at 1 µM / inhibition at 10 µM: Homo sapiens, HUVEC
Summary of the method: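 HUVEC seeded 4000 cells/well, attached overnight, then given compound in serum/VEGF-free EBM plus 50 ng/ml VEGF (final); parallel plates used EGM2 with 2% serum lacking VEGF. Incubation 4-5 days at 37° C. DNA synthesis measured by 5 h [3H]-thymidine (1 μCi/well) incorporation, scintillation-counted.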

[6] = Concentration 100 nM, ATP conc. 10 μM
[7] = Concentration 1000 nM, ATP conc. 10 μM
[8] = Concentration 1000 nM, ATP conc. 1000 μM

T2 sequence (P35968 20-1356): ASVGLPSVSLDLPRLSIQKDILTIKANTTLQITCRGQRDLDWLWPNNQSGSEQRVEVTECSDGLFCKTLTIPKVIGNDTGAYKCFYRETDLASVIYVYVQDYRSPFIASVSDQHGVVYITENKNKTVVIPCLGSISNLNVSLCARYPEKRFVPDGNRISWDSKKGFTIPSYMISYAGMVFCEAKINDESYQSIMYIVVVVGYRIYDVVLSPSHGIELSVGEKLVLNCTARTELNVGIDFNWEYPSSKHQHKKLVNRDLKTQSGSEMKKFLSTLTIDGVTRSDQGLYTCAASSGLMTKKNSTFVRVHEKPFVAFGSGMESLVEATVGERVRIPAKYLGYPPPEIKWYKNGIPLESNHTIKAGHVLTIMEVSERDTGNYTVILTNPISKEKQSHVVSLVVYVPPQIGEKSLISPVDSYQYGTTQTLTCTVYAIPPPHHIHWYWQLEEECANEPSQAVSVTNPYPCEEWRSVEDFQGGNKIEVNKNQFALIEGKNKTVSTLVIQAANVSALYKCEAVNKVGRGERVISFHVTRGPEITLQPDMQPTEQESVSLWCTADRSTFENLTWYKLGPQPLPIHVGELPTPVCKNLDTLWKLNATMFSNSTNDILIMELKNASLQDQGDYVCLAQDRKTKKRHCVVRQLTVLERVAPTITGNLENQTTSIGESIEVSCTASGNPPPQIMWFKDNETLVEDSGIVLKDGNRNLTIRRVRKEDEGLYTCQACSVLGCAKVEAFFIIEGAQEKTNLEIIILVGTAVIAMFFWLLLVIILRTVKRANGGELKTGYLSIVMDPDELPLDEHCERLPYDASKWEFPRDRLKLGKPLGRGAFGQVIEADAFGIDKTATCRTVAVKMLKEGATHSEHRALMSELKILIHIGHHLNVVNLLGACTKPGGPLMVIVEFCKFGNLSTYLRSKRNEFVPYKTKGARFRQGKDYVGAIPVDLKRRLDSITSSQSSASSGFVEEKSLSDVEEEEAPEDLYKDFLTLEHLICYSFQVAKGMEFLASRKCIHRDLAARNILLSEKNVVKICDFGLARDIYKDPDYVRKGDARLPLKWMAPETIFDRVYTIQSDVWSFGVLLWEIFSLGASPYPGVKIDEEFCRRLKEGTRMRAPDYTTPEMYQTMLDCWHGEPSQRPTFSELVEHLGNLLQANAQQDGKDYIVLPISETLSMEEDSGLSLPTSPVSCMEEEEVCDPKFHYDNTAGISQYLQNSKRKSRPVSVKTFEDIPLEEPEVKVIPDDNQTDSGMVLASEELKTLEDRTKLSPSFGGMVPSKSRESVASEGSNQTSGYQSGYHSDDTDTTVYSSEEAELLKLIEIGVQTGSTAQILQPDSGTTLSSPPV
T1 sequence (P35968 806-1356): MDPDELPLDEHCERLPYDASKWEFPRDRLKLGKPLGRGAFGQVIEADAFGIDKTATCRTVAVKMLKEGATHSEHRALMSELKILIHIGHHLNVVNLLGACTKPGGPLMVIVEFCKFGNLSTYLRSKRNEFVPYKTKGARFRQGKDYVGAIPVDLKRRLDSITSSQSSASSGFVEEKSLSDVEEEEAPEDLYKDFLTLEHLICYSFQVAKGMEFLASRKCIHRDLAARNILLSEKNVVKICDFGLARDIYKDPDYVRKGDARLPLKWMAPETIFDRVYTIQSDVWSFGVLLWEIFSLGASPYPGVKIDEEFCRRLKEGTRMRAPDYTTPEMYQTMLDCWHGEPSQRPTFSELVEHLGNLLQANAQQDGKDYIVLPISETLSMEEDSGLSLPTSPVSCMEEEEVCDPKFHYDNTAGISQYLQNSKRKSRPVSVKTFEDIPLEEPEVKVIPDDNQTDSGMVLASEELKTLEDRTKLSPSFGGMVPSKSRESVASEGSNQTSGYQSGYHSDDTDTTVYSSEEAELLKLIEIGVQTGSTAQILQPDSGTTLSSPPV

Row | SMILES | IC50 ([1]; ATP conc. 10 μM) | inhibition at 0.1 µM [1, 6] [%] | inhibition at 1 µM [1, 7] [%] | inhibition at 1 µM [1, 8] [%] | % Inhibition of KDR kinase autophosphorylation in KDR15 cells [2] | inhibition at 1 µM [3] [%] | IC50 ([4]; no wash) [nM] | IC50 ([4]; wash out) [nM] | IC50 [3] | melting point [°C] | inhibition at 0.1 µM ([5]; conc. 100 nM) [%] | inhibition at 1 µM ([5]; conc. 1000 nM) [%] | inhibition at 10 µM ([5]; conc. 10000 nM) [%] | other results
1 | COCCOc1cc2ncnc(NC3=CC(=O)C(Oc4ccc(S(N)(=O)=O)cc4)=CC3=O)c2cc1OC [Example 38, 4-[(4-{[6-methoxy-7-(2-methoxyethoxy)quinazolin-4-yl]amino}-3,6-dioxocyclohexa-1,4-dien-1-yl)oxy] benzenesulfonamide] |  |  |  |  | 97% |  |  |  |  |  |  |  |  | % Inhibition [1, 6]: 93%; % Inhibition [1, 7]: 95%
2 | COCCOc1cc2ncnc(NC3=CC(=O)C(N(C)c4ccc(OC)c(OC)c4)=CC3=O)c2cc1OC [Example 73, 2-[(3,4-dimethoxyphenyl)(methyl)amino]-5-{[6-methoxy-7-(2-methoxyethoxy)quinazolin-4-yl]amino}benzo-1,4-quinone] | 1840 nM and > 1000 nM |  | 30 | -2 | 90% and 143% and 113% |  |  |  | < 15.6 nM |  |  |  |  | inhibition at 10 µM ([1]; Concentration not given, ATP conc. 10 μM): 13%
3 | COCCOc1cc2ncnc(NC3=CC(=O)C(N(C)c4ccc(N(C)C)cc4)=CC3=O)c2cc1OC [Example 75, 2-[[4-(dimethylamino)phenyl](methyl)amino]-5-{[6-methoxy-7-(2-methoxyethoxy)quinazolin-4-yl]amino}benzo-1,4-quinone] | 93 nM | 47 | 92 | 93 | 61% | 45 | 93 | 161 |  |  | -22 | 41 | 91 | 
4 | COc1cc2ncnc(NC3=CC(=O)C(Nc4ccccc4)=CC3=O)c2cc1OC [Example 86, 2-anilino-5-[(6,7-dimethoxyquinazolin-4-yl)amino]benzo-1,4-quinone] | 40.7 nM | 58 | 93 | 96 |  |  | 40.7 | 57.1 |  | 258 to 261 |  |  |  | 
5 | COCCOc1cc2ncnc(NC3=CC(=O)C(Oc4ccccc4C)=CC3=O)c2cc1OC [Example 90, 2-{[6-methoxy-7-(2-methoxyethoxy)quinazolin-4-yl]amino}-5-(2-methylphenoxy)benzo-1,4-quinone] | 30 nM and 7.5 nM and 8.8 nM |  | 94 | 96 |  |  | 8.8 | 18.5 | 236 nM and 147 nM | 134 to 137 | 22 | 15 | 95 | % Inhibition [1, 8]: 97%; inhibition at 0.2 µM ([3]; read-out: % Inhibition of KDR kinase autophosphorylation in KDR15 cells, compound conc. 200 nM): 29%
6 | COc1cc2ncnc(NC3=CC(=O)C(Oc4ccc(Cl)cc4)=CC3=O)c2cc1OC [Example 94, 2-(4-chlorophenoxy)-5-[(6,7-dimethoxyquinazolin-4-yl)amino]benzo-1,4-quinone] | 4 nM | 93 | 94 | 96 | 40% and 54% and 64% |  |  |  | 386 nM |  | 28 | 60 | 94 | % Inhibition of VEGF-dependent growth of HUVEC ([5]; conc. 100 nM): 20%; % Inhibition of VEGF-dependent growth of HUVEC ([5]; conc. 1000 nM): 52%; % Inhibition of VEGF-dependent growth of HUVEC ([5]; conc. 10000 nM): 78%
7 | COc1cc2ncnc(NC3=CC(=O)C(c4ccccc4)=CC3=O)c2cc1OC [Example 99, 2-[(6,7-dimethoxyquinazolin-4-yl)amino]-5-phenylbenzo-1,4-quinone] |  | 93 | 92 | 96 | 29% | 20 |  |  |  | 200 to 205 |  |  |  | 
8 | COCCOc1cc2ncnc(NC3=CC(=O)C4(C)OC4C3=O)c2cc1OC (centres unmarked) [Example 106, 4-{[6-methoxy-7-(2-methoxyethoxy)-4-quinazolinyl]amino}-1-methyl-7-oxabicyclo[4.1.0]hept-3-ene-2,5-dione] | 339 nM |  | 69 | 70 | 78% and 100% and 59% |  |  |  |  |  |  |  |  | 

The next lines start with results.

Row | IC50 ([1]; ATP conc. 10 μM) | inhibition at 0.1 µM [1, 6] [%] | inhibition at 1 µM [1, 7] [%] | inhibition at 1 µM [1, 8] [%] | % Inhibition of KDR kinase autophosphorylation in KDR15 cells [2] | inhibition at 1 µM [3] [%] | IC50 ([4]; no wash) [nM] | IC50 ([4]; wash out) [nM] | IC50 [3] | melting point [°C] | SMILES | inhibition at 0.1 µM ([5]; conc. 100 nM) [%] | inhibition at 1 µM ([5]; conc. 1000 nM) [%] | inhibition at 10 µM ([5]; conc. 10000 nM) [%] | other results
9 | 5.1 nM | 83 | 96 | 98 | 12% | 18 |  |  |  |  | COc1cc2ncnc(NC3=CC(=O)C(Cl)=CC3=O)c2cc1OC [Example 2, 2-chloro-5-[(6,7-dimethoxy-4-quinazolinyl)amino]benzo-1,4-quinone] |  |  |  | 
10 | 80.5 nM and 285 nM and 707 nM |  | 15 | 12 | 106% | 100 | 285 | > 1000 | < 15.6 nM |  | COc1cc2ncnc(NC3=CC(=O)C(C)=CC3=O)c2cc1OC [Example 4, 2-[(6,7-dimethoxy-4-quinazolinyl)amino]-5-methylbenzo-1,4-quinone] |  |  |  | Behaviour as reversible or irreversible binding inhibitor ([4]; IC50 with wash-out step compared to no wash-out step): appear to act like reversible binding inhibitors
11 | 2.3 nM and 1.3 nM | 85 | 96 | 97 | 41% |  | 2.3 | 1.2 | 250 nM |  | COc1cc2ncnc(NC3=CC(=O)C=C(C)C3=O)c2cc1OC [Example 7, 2-[(6,7-dimethoxy-4-quinazolinyl)amino]-6-methylbenzo-1,4-quinone] | 23 | 79 | 97 | inhibition at 10 µM ([1]; Concentration 10000 nM, ATP conc. 10 μM): 96%
12 |  | 24 | 58 | 33 | 55% and 94% |  |  |  |  |  | COc1cc2ncnc(NC3=CC(=O)C(C(C)C)=CC3=O)c2cc1OC [Example 9, 2-[(6,7-dimethoxy-4-quinazolinyl)amino]-5-isopropylbenzo-1,4-quinone] |  |  |  | 
13 | 654 nM |  |  |  | 52% |  |  |  | < 62.5 nM | 178 to 180 | COCCOc1cc2ncnc(NC3=CC(=O)C(N(C)C4CCCCC4)=CC3=O)c2cc1OC [Example 80, 2-[cyclohexyl(methyl)amino]-5-{[6-methoxy-7-(2-methoxyethoxy)quinazolin-4-yl]amino}benzo-1,4-quinone] | 39 | 85 | 97 | 
14 | 18.9 nM | 76 | 96 | 97 |  | 55 | 18.9 | 18.9 |  | 189 to 190 | COCCOc1cc2ncnc(NC3=CC(=O)C(Oc4cccnc4)=CC3=O)c2cc1OC [Example 91, 2-{[6-methoxy-7-(2-methoxyethoxy)quinazolin-4-yl]amino}-5-(pyridin-3-yloxy)benzo-1,4-quinone] | 0 | 15 | 93 | 
15 | 3.7 nM | 85 | 96 | 98 |  |  | 4.2 | 6.5 |  | 228 to 234 | COc1cc2ncnc(NC3=CC(=O)C(Oc4ccccc4)=CC3=O)c2cc1OC [Example 95, 2-[(6,7-dimethoxyquinazolin-4-yl)amino]-5-phenoxybenzo-1,4-quinone] |  |  |  | 
16 | 52.8 nM | 67 | 91 | 96 | 22% | 26 |  |  |  | 218 to 220 | COCCOc1cc2ncnc(NC3=CC(=O)C(OCc4ccccc4)=CC3=O)c2cc1OC [Example 96, 2-(benzyloxy)-5-{[6-methoxy-7-(2-methoxyethoxy)quinazolin-4-yl]amino}benzo-1,4-quinone] |  |  |  | 
17 |  |  |  |  |  | 68 | 59.8 | 82.6 |  | 104 to 108 | COCCOc1cc2ncnc(NC3=CC(=O)C4(Cc5ccccc5)OC4C3=O)c2cc1OC (centres unmarked) [Example 108, 1-benzyl-4-{[6-methoxy-7-(2-methoxyethoxy)quinazolin-4-yl]amino}-7-oxabicyclo[4.1.0]hept-3-ene-2,5-dione] |  |  |  | 
